The values below come from patent US7635779B2, “Oxy substituted flavones as antihyperglycemic and antidyslipidemic agents” (Council of Scientific & Industrial Research, priority 2004, dated 2009).

Holding throughout (assay type): in vivo, mouse
Data set [1] deals with Swiss mice. Kind of data set: Gross behaviour: autonomic responses. The settings on record: 100 mg/kg p.o. Here is the method:
34 and 49 (100 mg/kg, p.o.) was administered in forenoon. […] Piloerection: Erection of body hairs (+: present or −: absent). • ii). Salivation: Secretion of saliva is observed as dripping of saliva from mouth, which is scored as 1=mild, 2=moderate and 3=severe as compared to control (0=no dripping). • iii). Lachrymation: Secretion and discharge of tears observed as shedding of tears around the lower eyelid, which is scored as 1=mild, 2=moderate and 3=severe as compared to control (0=no shedding). • iv). Palpebral closure: Ptosis (drooping of upper eyelids) present or absent • v). Exopthalmos: Protrusion (bulging) of eye ball; present or absent • vi). Defaecation: scored as 1=mild, 2=moderate and 3=severe as compared to control • vii). Urination: scored as 1=mild, 2=moderate and 3=severe as compared to control Results

Data set [2] has as its system Swiss mice. Kind of data set: Neuromuscular coordination (muscle tone, rota rod test). Further details: key to Muscle tone score (hind limb rigidity): 0=Flaccid; 1=Normal; 2=Rigid. The settings on record: for Effect on neuromuscular coordination as compared to control / Rota rod test-numbers of falls / Rota rod test-stay period at 1 h (MEAN ± SE): 100 mg/kg p.o.; for Rota rod test-stay period at 1 h (MEAN ± SE): test duration 2 min; for Muscle tone score (hind limb rigidity): resistance to passive flexion of hind-paw. Here is the method: By resistance to passive flexion of each hind-paw
Score: 0=Flaccid, 1=Normal, 2=Rigid, • ii). Rota Rod Test
The period of stay on rotating rod (speed: 5 rotations/min; total duration of test 2 min) for each control and treated mice (−60 min) was recorded by Rotamex 4 (Columbus Instr., USA). The mice were trained to stay for period of 2 min on rotating rod and only trained mice were included in the study.
Background: In the rotarod test animals must keep their balance on a rotating rod.

Data set [3] relates to Swiss mice. In words: Maximal electroshock seizures (MES). The settings on record: 100 mg/kg p.o.; for Numbers of mice showed seizures/numbers of mice tested: 48 mAmp for 0.2 sec. Here is the method: Control and treated mice (−60 min) were subjected to electric shock (48 mAmp for 0.2 sec) through pinna electrode.
A general note: Protection in the maximal electroshock model is a classic sign of anticonvulsant action.

Each structure is given as a SMILES string.

For the compound `CC(C)(C)NCC(O)COc1ccc2c(=O)cc(-c3cc(OCc4ccccc4)cc(OCc4ccccc4)c3)oc2c1` (stereo not shown) [Compound 34, 7-(3-tert-Butylamino-2-hydroxy-propoxy)-3′,5′-dibenzyloxy-flavone], the “Effect on autonomic responses” value in the data set on Swiss mice [1] is on record as “did not show any significant effect”. In addition, the “Effect on neuromuscular coordination as compared to control” value in the data set on Swiss mice [2] is given as “did not show any significant effect”. The “Rota rod test-numbers of falls” value in the data set with Swiss mice [2] (30 min) was 0; in the data set with Swiss mice [2] (60 min) it was 1/8; in the data set with Swiss mice [2] (90 min), 0; in the data set with Swiss mice [2] (180 min) it was 0; in the data set with Swiss mice [2] (Pre-tt (0)) it was 0. Further, in the data set on Swiss mice [2], the “Rota rod test-stay period at 1 h (MEAN ± SE)” value worked out at 111.87 ± 8.82 s. For the same compound, in the data set on Swiss mice [2], the “Muscle tone score (hind limb rigidity)” value is 1. For the same compound, the Anti-convulsant activity result with Swiss mice [3] was “did not show any significant anti-convulsant activity”. In the data set with Swiss mice [3], the “Numbers of mice showed seizures/numbers of mice tested” value was 5/5.

Consider `CC(C)NCC(O)COc1ccc2c(=O)cc(-c3cc(O)cc(O)c3)oc2c1` (stereo not shown) [Compound 49, 3′,5′-Dihydroxy-7-(2-hydroxy-3-iso-propylamino-propoxy)-flavone], for which the “Effect on autonomic responses” value in the data set on Swiss mice [1] is listed as “did not show any significant effect”. Moreover, in the data set with Swiss mice [2], the “Effect on neuromuscular coordination as compared to control” value is “did not show any significant effect”. Further, the “Rota rod test-numbers of falls” value with Swiss mice [2] (30 min) was 0; in the data set on Swiss mice [2] (60 min), 1/8; with Swiss mice [2] (90 min), 0; in the data set with Swiss mice [2] (180 min) it was 0; with Swiss mice [2] (Pre-tt (0)), 0. For the same compound, in the data set with Swiss mice [2], the “Rota rod test-stay period at 1 h (MEAN ± SE)” value was found to be 112.25 ± 7.75 s. The “Muscle tone score (hind limb rigidity)” value in the data set with Swiss mice [2] is on record as 1. Also, the Anti-convulsant activity result in the data set on Swiss mice [3] is on record as “did not show any significant anti-convulsant activity”. Moreover, the “Numbers of mice showed seizures/numbers of mice tested” value in the data set on Swiss mice [3] is listed as 5/5.
